Where two headings read alike, the source gives them in different places. Non-standard residues stand in square brackets, D forms with d. Residues, ends and D or L forms follow the SMILES beside them. No end group written: not given here. d2Nal = N[C@H](Cc1ccc2ccccc2c1)C(=O)O; αMeF = C[C@](N)(Cc1ccccc1)C(=O)O
Assays:
[1] = system: U87-MG cells; experiment: MTT cytotoxicity assay, U87-MG cells; assay type: cell-based, human; conditions: 24 h treatment, mean ± SEM, n = 3 wells per experiment, 2–3 independent experiments
Method: (§1) Cisplatin, a cytostatic drug commonly used for cancer chemotherapy, was used as a reference compound.
(§2) The colorimetric tetrazolium salt assay with 3-([…]-2-yl)-2,5-diphenyltetrazolium bromide (MTT) was used to evaluate the cytotoxicity potential of the antagonists BK in the cancer cell lines H4, U87-MG, and SHP-77 (see Supporting Information for details)[52].
(§3) Cell lines were seeded at a concentration of 5000 cells/well (H4) and 10000 cells/well (U87-MG, SHP-77) in 96-well plates and incubated for 24 hours. […] These compounds were dissolved in redistilled water and added to the cultures at a final concentration of 0.1%. Twenty-four hours after treatment with the drugs, the MTT assay was performed according to the procedure described previously.^52 MTT solution was added to each well (at a final concentration of 0.15 mg/mL) and then incubated at 37°C for 30 minutes. Formosan crystals were resolved and measured at 570 nm using a 96-well microplate reader (Thermo Lab system Multiscan Spectrum). […] Data were analyzed using GraphPad Prism 7.04 software. Statistical differences were calculated using a one-way analysis of variance (ANOVA) followed by Tukey’s posthoc test. Values of p < 0.05 were considered significant.

[2] = system: caspase-3 and PARP cleavage; experiment: Western blot of caspase-3 activation and PARP cleavage in U87-MG, SHP-77 and H4 cells; assay type: cell-based, human; conditions: 24 h
Method: To verify whether the cytotoxic effects of the new B1R antagonists are mediated by apoptosis, the activation level of caspase-3, a key enzyme in the apoptosis process, and PARP protein, the caspase-3 substrate, were determined by Western blot analysis.
Cisplatin at 25 µM was used to induce control apoptosis. No significant change in the amount of cleaved PARP or caspase-3 activation was observed after B1R antagonist treatment compared with untreated cells (Fig. 5).
Figure 5 The effects of B1R antagonists and cisplatin on the expression levels of caspase-3 and PARP cleavage in cell lines U87-MG, SHP-77, and H4 were determined by Western blotting. 1. control cells; 2. cisplatin (25 μM); 3. […] BK11 (50 μM). […] Representative Western blot images showing expression of β-actin were used as a reference protein. Each picture represents a vertically cut part of nitrocellulose membranes. The membranes were cut before antibody application, considering the size margin according to the size of the molecular weight marker.
Western blot analysis was performed to evaluate the potential mechanism of cytotoxic activity of the antagonists of BK in cancer cell lines H4, U87-MG, and SHP-77 (see Supporting Information for details). Detection was performed using Pierce ECL Western blotting substrate (Thermo Fisher Scientific) and a Syngene GeneGnomeXRQ chemiluminescence analysis system. […]

[3] = system: H4 cells; experiment: MTT cytotoxicity assay, H4 cells; assay type: cell-based, human; conditions: 24 h treatment, mean ± SEM, n = 3 wells per experiment, 2–3 independent experiments
Method: as §1, §2, §3

[4] = system: SHP-77 cells; experiment: MTT cytotoxicity assay, SHP-77 cells; assay type: cell-based, human; conditions: 24 h treatment, mean ± SEM, n = 3 wells per experiment, 2–3 independent experiments
Method: as §1, §2, §3

[5] = system: B1R in SHP-77 cell line; experiment: Functional assay: shift of BK dose-response curve by B1R antagonist, SHP-77 cells; assay type: cell-based, human; conditions: antagonist 10 µM
From the text: (§4) In further experiments, the U87-MG, SHP-77, and H4 cell lines were used for the functional assay with BK and the reference B1R antagonist. As shown in Fig. 13S in Supplementary File, all three cell lines expressed the functional B1R protein and its activity according to the mRNA level shown in Fig. 4. The obtained results are consistent with previous findings showing the expression of functional B1R and B2R genes and proteins in human glioblastoma cells U87-MG[32],[33]. In other studies, cellular expression of B1 and B2 receptors was detected in five different subtypes of human lung carcinomas (adenocarcinoma, squamous cell carcinoma, large cell carcinoma, small cell carcinoma, and carcinoid tumors)[34]. In addition, B2R has also been characterized in the cell line SHP-77[35]. However, to our knowledge, this is the first time that we have detected B1R and B2R gene expression in H4 cells of human brain neuroglioma and B1R in SHP-77 cells of human lung carcinoma.
(§5) Figure 13S. […] All three cell lines expressed the functional protein B1R.

[6] = target: T1, B1R (Homo sapiens, UniProt P46663); experiment: IP-one (intracellular IP1) assay in T-REx 293/B1R cell line; assay type: cell-based
T1 construct: Thermo Fisher Scientific (T-REx 293 cells)
T1 sequence (P46663 1-353): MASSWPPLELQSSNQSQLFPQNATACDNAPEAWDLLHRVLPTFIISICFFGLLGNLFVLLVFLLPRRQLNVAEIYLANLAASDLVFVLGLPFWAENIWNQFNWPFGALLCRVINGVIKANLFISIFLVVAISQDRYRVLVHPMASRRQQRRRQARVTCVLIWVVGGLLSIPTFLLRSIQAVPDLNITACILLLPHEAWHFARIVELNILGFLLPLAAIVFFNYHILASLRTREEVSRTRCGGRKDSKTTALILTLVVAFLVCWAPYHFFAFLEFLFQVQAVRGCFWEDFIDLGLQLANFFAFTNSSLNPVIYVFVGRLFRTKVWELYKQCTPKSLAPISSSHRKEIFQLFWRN
Method: Cell culture and transfection.
(§6) The cell pellet was suspended in Hanks-HEPES (130 mM NaCl, 5.4 mM KCl, 1.8 mM CaCl2, 0.8 mM MgSO4, 0.9 mM NaH2PO4, 20 mM HEPES, LiCl 50 mM, and 3.25 mM glucose; pH 7.4).
Data were analyzed using GraphPad Prism version 5.04 for Windows (GraphPad software).

[7] = system: B1R in H4 cell line; experiment: Functional assay: shift of BK dose-response curve by B1R antagonist, H4 cells; assay type: cell-based, human; conditions: antagonist 10 µM
From the text: as §4, §5

[8] = system: B1R in U87-MG cell line; experiment: Functional assay: shift of BK dose-response curve by B1R antagonist, U87-MG cells; assay type: cell-based, human; conditions: antagonist 10 µM
From the text: as §4, §5

[9] = system: mock T-REx 293 cell line; experiment: IP1 assay in mock T-REx 293 cells without transfection of bradykinin receptors; assay type: cell-based, human; conditions: various doses of BK
Method: as §6

## N.N.[Cl][Pt][Cl] [Cisplatin]
[1]; 25 µM
  MTT, percentage of control, U87-MG: 50.357 ± 4.97 % of control
[1]; 100 µM
  MTT, percentage of control, U87-MG: 32.63 ± 6.934 % of control
[2]; 25 μM, positive control of apoptosis
  caspase-3 activation and PARP cleavage (Western blot): induction of caspase-3 and processed PARP fragments
[3]; 25 µM
  MTT, percentage of control, H4: 25.389 ± 3.71 % of control
[3]; 100 µM
  MTT, percentage of control, H4: 5.809 ± 1.488 % of control
[4]; 25 µM
  MTT, percentage of control, SHP-77: 53.631 ± 12.052 % of control
[4]; 100 µM
  MTT, percentage of control, SHP-77: 37.989 ± 11.626 % of control

## CC[C@H](C)[C@H](NC(=O)[C@@H](Cc1ccc2ccccc2c1)NC(=O)[C@H](CO)NC(=O)[C@](C)(Cc1ccccc1)NC(=O)CNC(=O)[C@@H]1CCCN1C(=O)[C@@H]1CCCN1C(=O)[C@H](CCCNC(=N)N)NC(=O)[C@H](CCCCN)NC(C)=O)C(=O)O [R 892] (Ac-KRPPG[αMeF]S[d2Nal]I-OH; N-terminus and C-terminus assumed)
[5]
  shift of BK EC50 after treatment with the B1R antagonist: 2,5 x
[6]; T-REx 293/B1R cells, in the presence of EC80 BK (1250 nM), SD ± 66 nM, read-out: EC50 value for decrease of IP1 levels (B1R antagonist)
  EC50: 69 nM
[7]
  shift of BK EC50 after treatment with the B1R antagonist: < 2 x
[8]
  shift of BK EC50 after treatment with the B1R antagonist: over 3 times

## RPPGFSPFR [BK, Bradykinin]
[6]
  EC50: 1300 nM

## N=C(N)NCCC[C@H](NC(=O)[C@H](Cc1cccs1)NC(=O)[C@H]1CCCCN1C(=O)[C@H](CO)NC(=O)[C@H](Cc1cccs1)NC(=O)CNC(=O)[C@@H]1C[C@@H](O)CN1C(=O)[C@@H]1CCCN1C(=O)[C@H](CCCNC(=N)N)NC(=O)[C@@H](CCCNC(=N)N)NC(=O)CC12CC3CC(CC(C3)C1)C2)C(=O)O [BK11]
[6]; T-REx 293/B1R cells, 25 μM analog with BK at EC80
  B1R screening, effect in the presence of BK (antagonist mode): antagonistic effect
[1]; 25 µM
  MTT, percentage of control, U87-MG: 96.125 ± 1.241 % of control
[1]; 100 µM
  MTT, percentage of control, U87-MG: 81.07 ± 4.542 % of control
[2]; 50 μM, compared with untreated control cells
  caspase-3 activation and PARP cleavage (Western blot): no induction of caspase-3 and PARP
[3]; 25 µM
  MTT, percentage of control, H4: 94.235 ± 3.538 % of control
[3]; 100 µM
  MTT, percentage of control, H4: 65.668 ± 3.305 % of control
[4]; 25 µM
  MTT, percentage of control, SHP-77: 96.421 ± 3.474 % of control
[4]; 100 µM
  MTT, percentage of control, SHP-77: 85.391 ± 5.646 % of control

## RPPGFSPFR-OH [BK, Bradykinin]
[9]
  response in IP1 assay, mock cells: did not respond

Reference: paper PMC9643506 (Scientific Reports, 2022)
